Each structure is given as a SMILES string.

The experiment deals with T1, Menin MLL 4-43 (Homo sapiens, UniProt O00255).
T1 sequence (O00255 1-610): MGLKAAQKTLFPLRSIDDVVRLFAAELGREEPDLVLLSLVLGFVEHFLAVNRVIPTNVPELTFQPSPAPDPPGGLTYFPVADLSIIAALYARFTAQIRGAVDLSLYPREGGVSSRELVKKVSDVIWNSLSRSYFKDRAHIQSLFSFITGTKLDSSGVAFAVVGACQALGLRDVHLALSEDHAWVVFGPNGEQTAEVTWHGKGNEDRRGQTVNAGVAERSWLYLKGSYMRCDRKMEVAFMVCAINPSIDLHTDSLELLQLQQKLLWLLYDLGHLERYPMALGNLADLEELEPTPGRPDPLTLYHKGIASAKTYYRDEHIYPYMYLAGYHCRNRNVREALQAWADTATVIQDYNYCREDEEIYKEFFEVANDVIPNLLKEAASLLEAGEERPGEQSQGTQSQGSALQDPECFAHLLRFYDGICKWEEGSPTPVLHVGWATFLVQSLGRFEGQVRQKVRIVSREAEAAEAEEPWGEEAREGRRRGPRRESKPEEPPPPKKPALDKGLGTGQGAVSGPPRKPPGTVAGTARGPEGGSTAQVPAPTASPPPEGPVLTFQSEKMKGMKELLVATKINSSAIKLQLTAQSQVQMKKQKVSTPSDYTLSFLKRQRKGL
Kind of experiment: Fluorescence polarization (FP) competition assay of the menin-MLL interaction. In kind it is binding. To be noted: fluorescence polarization assay; read-out: Menin MLL 4-43 IC50.

With `CNc1nc(NC2CCN(Cc3ccc4c(cc(C#N)n4C[C@H](C)N4CCN(S(C)(=O)=O)[C@H](C(=O)N(C)C)C4)c3C)CC2)c2cc(CC(F)(F)F)sc2n1` [Compound 196], the 50% inhibitory concentration (IC50) (commonly the concentration that gives 50% inhibition) was under 50 nM.

For `CNC(=O)[C@@H]1CN([C@@H](C)Cn2c(C#N)cc3c(C)c(CN4CCC(Nc5nc(NC)nc6sc(CC(F)(F)F)cc56)CC4)ccc32)CCN1S(C)(=O)=O` [Compound 197], the half-maximal inhibitory concentration (IC50) is under 50 nM.

Turning to `CNc1nc(NC2CCN(Cc3ccc4c(cc(C#N)n4C[C@H](C)N4CCN(S(=O)(=O)CF)CC4)c3C)CC2)c2cc(CC(F)(F)F)sc2n1` [Compound 198], the concentration for half-maximal inhibition (IC50) is 50 to 250 nM.

With `CCOC(=O)c1c(CC(F)(F)F)sc2ncnc(NC3CCN(Cc4ccc5c(cc(C#N)n5C[C@H](C)N5CCN(S(C)(=O)=O)CC5)c4C)CC3)c12` [Compound 200], the half-inhibitory concentration (IC50) is over 1000 nM.

As to `Cc1nc(NC2CCN(Cc3ccc4c(cc(C#N)n4C[C@@H](C)N4CCN(S(C)(=O)=O)CC4)c3C)CC2)c2cc(CC(F)(F)F)sc2n1` [Compound 201], the IC50 was in the range of 20 to 1000 nM.

As to `CNc1nc(NC2CCN(Cc3ccc4c(cc(C#N)n4C[C@H](C)N4CCC(CC(=O)N(C)C)CC4)c3C)CC2)c2cc(CC(F)(F)F)sc2n1` [Compound 202], the concentration for half-maximal inhibition (IC50) was under 50 nM.

Turning to `CNc1nc(NC2CCN(Cc3ccc4c(cc(C#N)n4C[C@H](C)N4CCC(CC(N)=O)CC4)c3C)CC2)c2cc(CC(F)(F)F)sc2n1` [Compound 204], the IC50 was under 50 nM.

As to `CNC(=O)CC1CCN([C@@H](C)Cn2c(C#N)cc3c(C)c(CN4CCC(Nc5nc(NC)nc6sc(CC(F)(F)F)cc56)CC4)ccc32)CC1` [Compound 206], the IC50 is under 50 nM.

In the case of `CNc1nc(NC2CCN(Cc3ccc4c(cc(C#N)n4C[C@H](C)N4CCN(S(C)(=O)=O)[C@H](C#N)C4)c3C)CC2)c2cc(CC(F)(F)F)sc2n1` [Compound 209], the IC50 was under 50 nM.

On to `CCS(=O)(=O)N1CCN([C@@H](C)Cn2c(C#N)cc3c(C)c(CN4CCC(Nc5nc(NC)nc6sc(CC(F)(F)F)cc56)CC4)ccc32)CC1` [Compound 210], for which the IC50 was under 50 nM.

On to `CNc1nc(NC2CCN(Cc3ccc4c(cc(C#N)n4C[C@H](C)N4CCN(S(=O)(=O)C5CC5)CC4)c3C)CC2)c2cc(CC(F)(F)F)sc2n1` [Compound 211], for which the concentration for half-maximal inhibition (IC50) lay within 50 to 250 nM.

As to `C=CC(=O)NC1CCN([C@@H](C)Cn2c(C#N)cc3c(C)c(CN4CCC(Nc5nc(NC)nc6sc(CC(F)(F)F)cc56)CC4)ccc32)CC1` [Compound 212], the concentration for half-maximal inhibition (IC50) was under 50 nM.

Turning to `CCC(=O)NC1CCN([C@@H](C)Cn2c(C#N)cc3c(C)c(CN4CCC(Nc5nc(NC)nc6sc(CC(F)(F)F)cc56)CC4)ccc32)CC1` [Compound 213], the IC50 is under 50 nM.

On to `CNc1nc(NC2CCN(Cc3ccc4c(cc(C#N)n4C[C@H](C)N4CCOC(C(=O)N(C)C)C4)c3C)CC2)c2cc(CC(F)(F)F)sc2n1` (some centres unmarked) [Compound 215], for which the IC50 is under 50 nM.

With `CNc1nc(NC2CCN(Cc3ccc4c(cc(C#N)n4C[C@H](C)N4CCOC(C(N)=O)C4)c3C)CC2)c2cc(CC(F)(F)F)sc2n1` (some centres unmarked) [Compound 216], the 50% inhibitory concentration (IC50) was under 50 nM.

Turning to `Cc1nc(NC2CCN(Cc3ccc4c(cc(C#N)n4C[C@H](C)N4CCS(=O)(=O)CC4)c3C)CC2)c2cc(CC(F)(F)F)sc2n1` [Compound 219], the IC50 was under 50 nM.

Take `CNC(=O)CC1CCN([C@@H](C)Cn2c(C#N)cc3c(C)c(CN4CCC(Nc5nc(C)nc6sc(CC(F)(F)F)cc56)CC4)ccc32)CC1` [Compound 220]: the IC50 was under 50 nM.

With `Cc1nc(NC2CCN(Cc3ccc4c(cc(C#N)n4C[C@H](C)N4CCC(CC(=O)N(C)C)CC4)c3C)CC2)c2cc(CC(F)(F)F)sc2n1` [Compound 221], the half-inhibitory concentration (IC50) is under 50 nM.

For `Cc1c(CN2CCC(Nc3nc(F)nc4sc(CC(F)(F)F)cc34)CC2)ccc2c1cc(C#N)n2C[C@H](C)N1CCN(S(C)(=O)=O)CC1` [Compound 222], the IC50 is under 50 nM.

For `CNc1nc(NC2CCN(Cc3ccc4c(cc(C#N)n4C[C@H](C)N4CCNCC4=O)c3C)CC2)c2cc(CC(F)(F)F)sc2n1` [Compound 225], the IC50 was under 50 nM.

As for `CNc1nc(NC2CCN(Cc3ccc4c(cc(C#N)n4C[C@H](C)N4CCN(C)CC4=O)c3C)CC2)c2cc(CC(F)(F)F)sc2n1` [Compound 226], the IC50 was under 50 nM.

Consider `CNc1nc(NC2CCN(Cc3ccc4c(cc(C#N)n4CC(C)c4ccc(=O)[nH]c4)c3C)CC2)c2cc(CC(F)(F)F)sc2n1` (centres unmarked) [Compound 229], for which the concentration for half-maximal inhibition (IC50) is under 50 nM.

As to `CNc1nc(NC2CCN(Cc3ccc4c(cc(C#N)n4CC(C)c4cn[nH]c4)c3C)CC2)c2cc(CC(F)(F)F)sc2n1` (centres unmarked) [Compound 230], the 50% inhibitory concentration (IC50) lay in the range of 50 to 250 nM.

`CNc1nc(NC2CCN(Cc3ccc4c(cc(C#N)n4C[C@H](C)N4CCN(S(C)(=O)=O)C(CO)C4)c3C)CC2)c2cc(CC(F)(F)F)sc2n1` (some centres unmarked) [Compound 233]: the concentration for half-maximal inhibition (IC50) was under 50 nM.

Take `Cc1c(CN2CCC(Nc3nc(CF)nc4sc(CC(F)(F)F)cc34)CC2)ccc2c1cc(C#N)n2C[C@H](C)N1CCN(S(C)(=O)=O)CC1` [Compound 241]: the 50% inhibitory concentration (IC50) lay in the range of 50 to 250 nM.

With `Cc1nc(NC2CCN(Cc3ccc4c(cc(C#N)n4C[C@H](C)N4CCN(S(C)(=O)=O)CC4)c3C)CC2)c2c(C)c(CC(F)(F)F)sc2n1` [Compound 242], the IC50 is over 1000 nM.

`CNc1nc(NC2CCN(Cc3ccc4c(cc(C#N)n4C[C@H](C)N4CCN(C)C(=O)C4)c3C)CC2)c2cc(CC(F)(F)F)sc2n1` [Compound 243]: the IC50 is under 50 nM.

Take `CNc1nc(NC2CCN(Cc3ccc4c(cc(C#N)n4C[C@H](C)N4CCNC(=O)C4)c3C)CC2)c2cc(CC(F)(F)F)sc2n1` [Compound 244]: the half-maximal inhibitory concentration (IC50) was under 50 nM.

As to `CC(=O)OCc1nc(NC2CCN(Cc3ccc4c(cc(C#N)n4C[C@H](C)N4CCN(S(C)(=O)=O)CC4)c3C)CC2)c2cc(CC(F)(F)F)sc2n1` [Compound 245], the IC50 was 50 to 250 nM.

On to `Cc1c(CN2CCC(Nc3nc(CO)nc4sc(CC(F)(F)F)cc34)CC2)ccc2c1cc(C#N)n2C[C@H](C)N1CCN(S(C)(=O)=O)CC1` [Compound 246], for which the IC50 is under 50 nM.

`CNc1nc(NC2CCN(Cc3ccc4c(cc(C#N)n4CC(C)C4CCN(S(C)(=O)=O)CC4)c3C)CC2)c2cc(CC(F)(F)F)sc2n1` (centres unmarked) [Compound 247]: the 50% inhibitory concentration (IC50) is under 50 nM.

With `CNc1nc(NC2CCN(Cc3ccc4c(cc(C#N)n4C[C@H](C)N4CCN(S(=O)(=O)CC(C)C)CC4)c3C)CC2)c2cc(CC(F)(F)F)sc2n1` [Compound 248], the IC50 was under 50 nM.

For the molecule `CNc1nc(NC2CCN(Cc3ccc4c(cc(C#N)n4C[C@H](C)N4CCC(NS(C)(=O)=O)CC4)c3C)CC2)c2cc(CC(F)(F)F)sc2n1` [Compound 249], the IC50 was under 50 nM.

With `CNc1nc(NC2CCN(Cc3ccc4c(cc(C#N)n4C[C@H](C)N4CCN(S(=O)(=O)CC5CC5)CC4)c3C)CC2)c2cc(CC(F)(F)F)sc2n1` [Compound 250], the IC50 was under 50 nM.

As to `CNc1nc(NC2CCN(Cc3ccc4c(cc(C#N)n4C[C@H](C)N4CCN(S(=O)(=O)C(C)C)CC4)c3C)CC2)c2cc(CC(F)(F)F)sc2n1` [Compound 251], the half-maximal inhibitory concentration (IC50) was under 50 nM.

On to `CNc1nc(NC2CCN(Cc3ccc4c(cc(C#N)n4C[C@H](C)N4CCN(S(C)(=O)=O)CC4)c3C)CC2)c2c(C)c(CC(F)(F)F)sc2n1` [Compound 252], for which the IC50 was over 1000 nM.

For the molecule `Cc1nc(NC2CCN(Cc3ccc4c(cc(C#N)n4C[C@H](C)N4CCC(S(C)(=O)=O)CC4)c3C)CC2)c2cc(C(O)C(F)(F)F)sc2n1` (some centres unmarked) [Compound 280], the IC50 lay in the range of 50 to 250 nM.

In the case of `CNc1nc(NC2CCN(Cc3ccc4c(cc(C#N)n4C[C@H](C)N4C5CCC4CN(S(C)(=O)=O)C5)c3C)CC2)c2cc(CC(F)(F)F)sc2n1` [Compound 282], the IC50 is under 50 nM.

Take `Cc1nc(NC2CCN(Cc3ccc4c(cc(C#N)n4C[C@H](C)N4C5CCC4CN(S(C)(=O)=O)C5)c3C)CC2)c2cc(CC(F)(F)F)sc2n1` [Compound 283]: the IC50 was under 50 nM.

As to `Cc1c(CN2CCC(Nc3ncnc4sc(CC(F)(F)F)cc34)CC2)ccc2c1cc(C#N)n2CCN1CCC(NS(C)(=O)=O)CC1` [Compound 1000], the 50% inhibitory concentration (IC50) lay in the range of 20 to 1000 nM.

As for `CC(=O)NC1CCN(CCn2c(C#N)cc3c(C)c(CN4CCC(Nc5ncnc6sc(CC(F)(F)F)cc56)CC4)ccc32)CC1` [Compound 1001], the IC50 was in the range of 20 to 1000 nM.

With `Cc1c(CN2CCC(Nc3ncnc4sc(CC(F)(F)F)cc34)CC2)ccc2c1cc(C#N)n2CCc1ccc(NC(=O)C2(C#N)CC2)cc1` [Compound 1002], the 50% inhibitory concentration (IC50) fell in the range of 50 to 250 nM.

As for `Cc1c(CN2CCC(Nc3ncnc4sc(CC(F)(F)F)cc34)CC2)ccc2c1cc(C#N)n2CCc1ccc(NC(=O)CC#N)cc1` [Compound 1003], the half-inhibitory concentration (IC50) was in the range of 50 to 250 nM.

Regarding `C=CC(=O)N(C)c1ccc(CCn2c(C#N)cc3c(C)c(CN4CCC(Nc5ncnc6sc(CC(F)(F)F)cc56)CC4)ccc32)cc1` [Compound 1010], the 50% inhibitory concentration (IC50) was over 1000 nM.

For `C#CCOc1cc(CCn2c(C#N)cc3c(C)c(CN4CCC(Nc5ncnc6sc(CC(F)(F)F)cc56)CC4)ccc32)ccc1NC(=O)C=C` [Compound 1011], the IC50 lay within 20 to 1000 nM.

Turning to `C=CC(=O)Nc1ccc(CCn2c(C#N)cc3c(C)c(CN4CCC(Nc5ncnc6sc(CC(F)(F)F)cc56)CC4)ccc32)cc1OCc1cn(CCOCCOCCOCCNC(=O)CCCC[C@H]2SC[C@H]3NC(=O)N[C@H]32)nn1` [Compound 1012], the IC50 is over 1000 nM.

`C/C=C(\C#N)C(=O)Nc1ccc(CCn2c(C#N)cc3c(C)c(CN4CCC(Nc5ncnc6sc(CC(F)(F)F)cc56)CC4)ccc32)cc1` [Compound 1013]: the IC50 lay in the range of 50 to 250 nM.

The values are drawn from patent US11673898B2, “Substituted inhibitors of menin-MLL and methods of use” (Kura Oncology, Inc., priority 2016, dated 2023).
